Values quoted from earlier work, collected in US20140107053A1, “APPLES WITH HIGH POLYPHENOLIC CONTENT” (CORESSENCE LIMITED, priority 2006, published 2014).

Assays:
[1] = indicated by Tmax values in human studies
[2] = compared to (−)-epicatechin monomers (Shoji et al. 2006)

For `O.Oc1cc(O)c2c(c1)O[C@H](c1ccc(O)c(O)c1)[C@@H](O)C2` [catechin], the site of absorption [1] is listed as “absorbed mainly in the small intestine” and the bioavailability [2] is listed as “relatively low bioavailability”.
In the case of `Oc1cc(O)c2c(c1)O[C@H](c1ccc(O)c(O)c1)[C@H](O)[C@H]2c1c(O)cc(O)c2c1O[C@H](c1ccc(O)c(O)c1)[C@H](O)C2` [Apple B2, epicatechin-(4β-8)-epicatechin], the “detection in human plasma” value is given as “detected at low levels”.
For `Oc1cc(O)c2c(c1)O[C@H](c1ccc(O)c(O)c1)[C@H](O)[C@H]2c1c(O)cc(O)c2c1O[C@H](c1ccc(O)c(O)c1)[C@@H](O)C2` [Apple B1, epicatechin-(4β-8)-catechin], the “detection in human plasma” value is listed as “detected at low levels”.
For epicatechin, the site of absorption [1] is given as “absorbed mainly in the small intestine”.
For `Oc1cc(O)c2c(c1)O[C@H](c1ccc(O)c(O)c1)[C@H](O)[C@H]2c1c(O)cc2c(c1O)C[C@@H](O)[C@@H](c1ccc(O)c(O)c1)O2` [Apple B5, epicatechin-(4β-6)-epicatechin], the detection in plasma (after chocolate consumption (Holt et al. 2002)) is listed as “could not be detected”.
